Results: patent US11717556B2, “Stemness-suppressing composition comprising OCT4 function-inhibiting peptide” (NATIONAL CANCER CENTER, priority 2018, dated 2023)
Values belong to the compound of their own block, whether it stands above or below them. Where no end group is shown, it is not given here.

Key:
[1] = system: OCT4 phosphorylation in NCCIT cell line; assay: Western blotting of OCT4 phosphorylation in NCCIT cell line transformed with peptide vectors; assay type: cell-based, human; conditions: vector-expressed peptide, cultured 36 to 48 hours, western blotting quantified with ImageJ (FIG. 16)
Excerpt: In order to confirm the link between the phosphorylation of an octamer-binding transcription factor 4 (OCT4) protein and stemness, first, a cell line expressing OCT4 substituted with 236D as an OCT4 S236 phosphorylation mimetic mutant was constructed. For construction of cells, a lentivirus expressing short hairpin RNA ([…], SEQ ID NO: 1) and a puromycin resistance gene in a doxycycline-dependent manner was constructed, and primarily, NCCIT(ATCC® CRL-2073™) and NTERA-2 (ATCC® CRL-1973™), which are cancer stem cell lines, were transfected with the lentivirus. Then, a plasmid recombinant for expressing OCT4 wild type and blasticidine resistance genes, or OCT4 substituted with 236D which is a phosphorylation mimetic of OCT4 and blasticidine resistance genes in a pCAG-Flag-B/S vector was secondarily transfected into the transfected cell line using Lipofectamine 3000 (Thermo Fisher). […]
After an NCCIT cell line was transformed by inserting the vector constructed by the method in Example 5 into the NCCIT cell line using Lipofectamine 3000, and then cultured for 36 hours to 48 hours, western blotting was performed in the same manner as in Example 2.1. The quantification of western blotting was analyzed using ImageJ. […]

PP1 protein = assay: Fluorescence polarization binding of FITC-bound peptides to purified PP1 protein
Experimental: Peptides in which FITC was bound to Helix-1, Helix-2, and Helix-3 in Example 4 were synthesized.
The peptides were uniformly aliquoted at a final concentration of 20 nM into a fluorescence polarization reaction buffer solution (10 mM HEPES pH7.5, 50 mM NaCl, 1 mM DTT, 1 mM EDTA, and 0.0025% Tween 20), a purified PP1 protein was added thereto, and then the resulting mixture was reacted for 30 minutes, and the results of measuring fluorescence polarization using TECAN Infinite F200 Pro are illustrated in FIG. 19.
The binding powers of Helix 3-1 (SEQ ID NO: 14), Helix 3-2 (SEQ ID NO: 15), Helix 3-3 (SEQ ID NO: 13), and Helix 3 were compared by narrowing the sequence involved in binding to PP1 in the Helix-3 sequence (SEQ ID NO: 11) consisting of 19 amino acids.

[2] = system: OCT4 S236 phosphorylation in cell lines; assay: Immunofluorescence staining of OCT4 phosphorylation after cell permeable peptide treatment; assay type: cell-based; conditions: cell permeable peptide 10 uM in cell culture solution, 2 days or more; immunofluorescence staining (FIG. 21)
[3] = system: OCT4 S236 phosphorylation in NCCIT and NTERA-2 cell lines; assay: Okadaic acid (PP1 inhibitor) treatment, western blotting and immunofluorescence staining of OCT4 S236 phosphorylation; assay type: cell-based, human; conditions: NCCIT and NTERA-2 treated with okadaic acid; western blotting and immunofluorescence (FIGS. 10, 11)

Compound: Helix 1-3: Amino acid sequence NRVRGNLENLFLQCPKPTLQQISHIAQQLGLEKDVVRVWFCNRRQKGKRS; OCT4 function-inhibiting peptide, expressed from pCAG-F-puro vector (Helix 1-3)
phosphorylation of OCT4 [1]: the highest

Compound: Helix 3-3: Amino acid sequence VVRVWFCNRRQK; consisting of 12 amino acids (Helix 3-3)
binding power to PP1 compared with Helix-3 (PP1 protein; FITC-bound peptides, fluorescence polarization (FIG. 20)): the same binding power as that of Helix-3

Compound: 11R-GGG-VVRVWFCNRRQK: Cell permeable peptide to which the sequence of Helix-3-3 was linked: RRRRRRRRRRRGGGVVRVWFCNRRQK (Cell penetrating peptide CPP H3-3)
phosphorylation of OCT4 [2]: increase in phosphorylation of OCT4

Compound: Helix 1: Amino acid sequence NRVRGNLENL; OCT4 function-inhibiting peptide (also: FITC label (site not given here))
phosphorylation of OCT4 [1]: the highest

Compound: C=C1[C@@H](O)[C@@H]2O[C@]3(CC[C@H](/C=C/[C@@H](C)[C@@H]4CC(C)=C[C@@]5(O[C@H](C[C@@](C)(O)C(=O)O)CC[C@H]5O)O4)O3)CC[C@H]2O[C@@H]1[C@@H](O)C[C@H](C)[C@H]1O[C@@]2(CCCCO2)CC[C@H]1C [okadaic acid]
phosphorylation of OCT4 [3]: the phosphorylation of OCT4 was increased

binding to PP1 (fluorescence polarization values) (PP1 protein; FITC-bound peptide 20 nM, purified PP1 protein added, 30 minutes (FIG. 19)): bound
Compound: Helix 3: Amino acid sequence KDVVRVWFCNRRQKGKRSS; OCT4 function-inhibiting peptide consisting of 19 amino acids (Helix 3)
